Patent US11046647B2, “Activators of the unfolded protein response” (The Board of Trustees of the University of Illinois, priority 2018, dated 2021)
Several values for one entry are separate records, joined by “and”; a condition that tells them apart may be missing. Equal values may be shown once.

Assays:
[1] = test system: TYS-Luc (T47DERαY537S-Luc human breast cancer cells) tumors; test: Orthotopic TYS-Luc mouse xenograft, bioluminescent imaging (BLI); assay type: in vivo
Protocol: In a treatment and vehicle-controlled mouse tumor study, human breast cancer cells were engineered to contain both the lethal ERαY537S mutation found in metastatic breast cancer, and the gene for firefly luciferase—when the appropriate chemical is added, the firefly luciferase breaks down the chemical and light is produced. Using a sensitive detector called an imaging system, this allows us to image the tumors inside live mice. This is called bioluminescent imaging, or BLI. Large tumors were allowed to form. Then (−)-105 was injected daily under the skin for three weeks. Using the imaging system, the effect of (−)-105 on the tumors was monitored. At the same time the effect of the vehicle in which (−)-105 was dissolved on tumors was also monitored.
A study was performed to determine what happens after stopping treatment with (−)-105 (Table 2). The study was designed to show whether the micro-tumors would remain dormant, or whether they would regrow. At the end of the three-week treatment, there is residual material that gives off a tiny amount of light which are termed “micro-tumors”. Based on sensitivity of the imaging system, it is believed these micro-tumors contain anywhere from 0˜1,000 cancer cells; the micro-tumors will not be visible to the naked eye. Seeing them requires the powerful imaging system, or a microscope. To test whether these cells are either dead, or no longer dividing and are dormant, the cells two and 4 weeks after they stopped receiving any treatment were imaged. This study tested whether growing cancer cells have been eradicated; this study continues.
In a 3-week study, large breast tumors were present at start of treatment and regressed as shown in the image of FIG. 17. The study was performed using Orthotopic TYS-Luc (injected cells: T47DERαY537-Luc human breast cancer cells), e.g., the most lethal ERα mutation in human in metastatic breast cancer. Tumors were grown in NSG mice. Further details are provided in the Examples.
Experimental Details of the Xenografts: TYS-Luc cells (5,000,000 cells in Matrigel) were injected into the upper mammary fat pad of ovariectomized female NSG (SCID) mice (Jackson labs). After 10 weeks, on day 0, large tumors (size range: 100-600 mm^3) were present. Mice were treated with the vehicle used to dissolve (−)-105, or (−)-105 at 40 mg/kd daily by subcutaneous injection. For bioluminescent imaging (BLI) of the tumors, the mice were anesthetized with isoflurane and Lucerfin, the luciferase substrate, was injected into the mice. Flux, the total member of light photons hitting the detector in one second was measured using an IVIS ([…]). Shown is the flux (in millions of units per second) for the entire area containing each tumor, or an equivalent area when the tumor is tiny or undetectable and the percent change in tumor size at each time a measurement was taken (day 0, day 3, week 1, week 2, week 3). Then treatment was stopped, and another measurement was taken two weeks letter. Note that tumors were also measured with calipers. […] After three days all the (−)-105 tumors has declined to undetectable using calipers.

[2] = test system: intracellular ATP levels in TYS-Luc cells; test: Intracellular ATP levels, TYS-Luc cells; assay type: cell-based, human; conditions: 1,000 nM
Protocol: TYS-Luc cells were maintained DMSO vehicle (Veh), 1,000 nM BHPI, 1,000 nM (−)-105 with and without 10,000 nM thapsigargin (THG) for the indicated times. ATP levels were determines using a kit and relative ATP levels were from a standard curve. […] (n=3±SEM).

[3] = Pharmacokinetics, brain penetration and tolerability in mice; assay type: in vivo, mouse
Protocol: FIG. 40. SERK-F6 is tolerated, reaches biologically relevant concentrations, and crosses the blood-brain barrier in vivo. a, Serum concentrations of SERK-F6 after indicated doses, route of administration, and time. Concentration was determined via LC/MS/MS analysis. […] AUC: Area Under the Curve, Cmax: maximum concentration, t1/2: half-life. c,d, Mice (CD-1) were treated with the indicated doses and times, then sacrificed and their serum and brains collected. Concentrations were determined via LC/MS/MS analysis. […] Treatment arms: vehicle daily (n=3), vehicle weekly (n=3), fulv. weekly (5 mg/mouse, s.c., n=6), SERK-F6 daily (10 or 40 mg/kg p.o.). Vehicle arms were combined. g, Mass of tumors harvested from mice. h, observed murine weight during this MCF-7 study (n=6). i,j, Tumor measurements for MCF-7 bilateral orthotopic model (n=4-5).
The pharmacokinetics of SERK-F6 was measured in mice (FIG. 40A-B).

T47D cells = test: 24-hour crystal violet assay; assay type: cell-based, human
Protocol: FIG. 36. Discovery of SERK-F6 (also known as, C(−)-105, (−)-105, (R)-105, (−)-1, or (R)-1), a compound that kills ERα-positive cancer cells, a, Chemical structures of BHPI and racemic compound 1 (i.e. (±)-1), and their cytotoxic activity on T47D breast cancer cells after 24-hour incubations with concentrations as indicated in nM. Cells were stained with annexin V-FITC and PI dyes prior to analysis via flow cytometry. […] Cells were incubated with SERK-F6 or positive control, Raptinal, for 24 hours and then stained with annexin V-FITC and PI dyes and analyzed via flow cytometry. Error bars represent S.E.M of 3 independent replicates. c, IC50 values of SERK-F6 after 24-hour incubation against a panel of cancer cell lines grouped by their reported ERα status. Cell viability was measured by Alamar blue fluorescence and set relative to a vehicle control and a quantitative dead control treated with Raptinal. Error bars represent S.E.M of 3 independent experiments. d, Crystal violet staining of T47D cells after 24-hour incubations with compounds and concentrations as indicated. Image is representative of 2 independent experiments. e,f, Long-term cell culture experiment with T47D, TDG, and TYS cells. Cells were incubated for 2 weeks with compounds (1 μM), followed by compound washout, and cells were cultured for 2 months. Cell number was determined by MTS.

[4] = 2 weeks after treatment stopped, per mouse
[5] = 4 weeks after treatment stopped, per mouse

O=C1Nc2c(C(F)(F)F)cccc2C1(c1ccc(O)cc1)c1ccc(OC(F)(F)F)cc1 (single isomer, unassigned; (-)) [(−)-105, 3-(4-hydroxyphenyl)-3-(4-(trifluoromethoxy)phenyl)-7-(trifluoromethyl)indolin-2-one]
tumor regrowth after sub-therapeutic dose ([1]; 10 mg/kg oral): tumors did regrow | Week 2 No Drug % Change in Tumor Flux [1, 4]: −99.95% and −99.84% and −100% (2×) and −99.991% | Week 2 No Drug Tumor Flux [1, 4]: 0.13 millions of photons/sec and 0.11 millions of photons/sec and 0 millions of photons/sec (2×) and 0.17 millions of photons/sec | health / toxicity of treated mice ([1]; 3-week treatment): No toxicity | micro-tumor regrowth after stopping treatment ([1]; 4 weeks after stopping treatment): NO “MICRO-TUMOR” REGROWTH | Week 4 No Drug % Change in Tumor Flux [1, 5]: −99.98% and −99.88% and −100% and −99.997% and −99.998% | Week 4 No Drug Tumor Flux [1, 5]: 0.038 millions of photons/sec (2×) and 0.084 millions of photons/sec and 0 millions of photons/sec and 0.048 millions of photons/sec | Day 3 Flux ([1]; Day 3, per mouse, 40 mg/kg daily, 40 mg/kg): 0.22 millions of photons/s and 0.043 millions of photons/s and 0.40 millions of photons/s and 0.29 millions of photons/s and 0.17 millions of photons/s | Day 3 % Change in Tumor Flux ([1]; Day 3 vs Day 0, per mouse): −99.99% (2×) and −99.98% (2×) and −99.45% | Day 7 Flux ([1]; Day 7, per mouse): 0.082 millions of photons/s and 0.041 millions of photons/s and 0.17 millions of photons/s and 0.059 millions of photons/s and 0.18 millions of photons/s | Day 7 % Change in Tumor Flux ([1]; Day 7 vs Day 0, per mouse): −99.996% (2×) and −99.99% (2×) and −99.77% | Day 14 Flux ([1]; Day 14, per mouse): 0.246 millions of photons/s and 0.039 millions of photons/s and 0.245 millions of photons/s and 0 millions of photons/s and 0.071 millions of photons/s | Day 14 % Change in Tumor Flux ([1]; Day 14 vs Day 0, per mouse): −99.99% (2×) and −99.66% and −100% and −99.996% | Day 21 Flux ([1]; Day 21, per mouse): 0.051 millions of photons/s and 0.16 millions of photons/s and 0.14 millions of photons/s and 0 millions of photons/s and 0.046 millions of photons/s | Day 21 % Change in Tumor Flux ([1]; Day 21 vs Day 0, per mouse): −99.998% and −99.94% and −99.81% and −100% and −99.997% | tumor regrowth upon treatment cessation ([1]; after 21 daily doses 40 mg/kg i.p.): tumors did not regrow | tumor regression by BLI, 4 of the 5 tumors ([1]; after 3 days of treatment): more than 99.9% | tumor regression by BLI, all five tumors ([1]; after 3 days of treatment): more than 99% | tumor size using calipers, all 5 mice ([1]; after 3 days of treatment): undetectable | tumor regression by BLI, 3 of the remaining 4 mice ([1]; after three weeks): more than 99.9% | effect on Y537S tumors (TYS cell line) ([1]; dose-dependent, i.p. and oral administration): eradicates Y537S tumors | tolerability ([1]; i.p. and oral administration): tolerated | Start Recovery Flux ([1]; start of no-drug recovery after 3 weeks treatment, per mouse): 0.16 millions of photons/sec and 0.14 millions of photons/sec and 0 millions of photons/sec and 0.046 millions of photons/sec and 0.051 millions of photons/sec | Start No Drug: % change in Tumor Flux ([1]; start of no-drug recovery, per mouse): −99.94% and −99.81% and −100% and −99.997% | microtumor regrowth after stopping treatment ([1]; two weeks after treatment was stopped): had not started growing again | tumor size using calipers, all 5 tumors ([1]; within seven days): undetectable size | intracellular ATP levels [2]: reduces intracellular ATP levels | blood-brain barrier penetration ([3]; CD-1 mice, serum and brain LC/MS/MS): blood-brain barrier penetrant | effect on ERα tissues as measured by circulating estradiol levels ([3]; long-term treatment): does not ablate ERα tissues | tolerability in vivo ([3]; mouse, in vivo): well-tolerated | concentrations reached in vivo ([3]; serum, LC/MS/MS): can achieve biologically relevant concentrations in-vivo | cell killing (T47D cells): quantitatively kills
